# US9115367B2, “Stomata-increasing agent, polypeptide, method for increasing number and/or density of stomata in plant, and method for increasing yield of plant” (KYOTO UNIVERSITY, priority 2009, dated 2015)
# Where no end group is shown, it is not given here.
# Columns and labels:
# [1] = test system: Arabidopsis thaliana {Lti6b-GFP line}; test: Administration of purified recombinant stomagen to germinated seedlings (Example 4); type: in vivo
# Experimental: Seeds of Arabidopsis thaliana {Lti6b-GFP line} were maintained in a B5 sterilized medium {manufactured by NIHON PHARMACEUTICAL CO., LTD, catalogue number: 399-00621} for germination. To the Lti6b-GFP line at 2 days after germination was administered the purified recombinant stomagen obtained in Example 2, so as to have a concentration of 2 μM. Thereafter, the Lti6b-GFP line was grown for 3 days at 22° C. The abaxial epidermis of the cotyledons was observed under a confocal microscope. The same operation was carried out as described above, using as a control an Lti6b-GFP line to which stomagen was not administered. The abaxial epidermis of the cotyledons was observed. A confocal microscopic image of abaxial epidermis of the cotyledon of the Lti6b-GFP-expressing line to which the purified recombinant stomagen was not administered in Example 4 is shown in FIG. 26 (a) and a confocal microscopic image of abaxial epidermis of the cotyledon of the Lti6b-GFP-expressing line to which the purified recombinant stomagen (2 μM) was administered in Example 4 is shown in FIG. 26 (b). In the figures, a scale bar represents 50 μm.
# [2] = test system: Arabidopsis thaliana Col-0 line; test: Heat and lyophilization treatment of stomagen, then stomatal density test (Test Example 16); type: in vivo; conditions: 60° C. for 5 minutes, 90° C. for 5 minutes or lyophilized; administered at 3 μM, cotyledon
# Experimental: The chemically synthesized stomagen obtained in Example 5 was incubated at 60° C. for 5 minutes (sample number 3) or at 90° C. for 5 minutes (sample number 4). In addition, the chemically synthesized stomagen obtained in Example 5 was lyophilized (sample number 5).
# The seeds of Arabidopsis thaliana Col-0 line (stock number: CS60000) were maintained and germinated in a B5 sterilized medium. To the Arabidopsis thaliana Col-0 line (stock number: CS60000) at 2 days after germination was administered the untreated stomagen (sample number 2), the stomagen incubated at 60° C. for 5 minutes (sample number 3), the stomagen incubated at 90° C. for 5 minutes (sample number 4), or the lyophilized stomagen (sample number 5), so as to have a concentration of 3 μM.
# Thereafter, the Arabidopsis thaliana Col-0 line (stock number: CS60000) was grown at 22° C. for 3 days. Next, the cotyledon was collected, and the surface of the cotyledon was observed under a confocal microscope {manufactured by Zeiss, trade name: LSM510 META microscope}, to determine the number of stomata in a square area of 0.22 mm^2. Then, stomatal density was calculated. […] Stomatal density was calculated by carrying out the same operation as described above with the use of Arabidopsis thaliana Col-0 line (stock number: CS60000) to which stomagen was not administered as a control (sample number 1). […]
# soybean (Kariyutaka) = test: Addition of synthetic stomagen to soybean shoot apex (Example 8); type: in vivo; conditions: 1 μM, 10 μM or 100 μM added to shoot apex at second leaf stage, grown for a week
# Experimental: The seeds of soybean (Kariyutaka) were seeded to a pot containing potting compost, germinated and then grown until the second leaf stage. Then, the synthetic stomagen obtained in Example 5 was added to the shoot apex, so as to have a concentration of 1 μM, 10 μM or 100 μM. Thereafter, the resulting plant was grown for a week and observed under a differential interference microscope {manufactured by Zeiss, trade name: Axioskop plus microscope}, to determine the number of stomata in a square area of 0.22 mm^2. Then, stomatal density was calculated. Here, statistical analysis was conducted using R statistical analysis software. […] In the figure, an open triangle, an open square and an open circle each show a different plant.
# spch mutant = test: Administration of purified recombinant stomagen to spch mutant (Test Example 9); type: in vivo, Arabidopsis thaliana; conditions: 2 μM administered to spch mutant at 2 days after germination, grown 3 days; abaxial epidermis of cotyledon
# Experimental: The seeds of the spch mutant or the seeds of Arabidopsis thaliana Col-0 line (stock number: CS60000) {wild-type strain} were maintained in a B5 sterilized medium for germination. To the spch mutant or the wild-type strain at 2 days after germination was administered the purified recombinant stomagen obtained in Example 2, so as to have a concentration of 2 μM. Thereafter, the spch mutant or the wild-type strain was grown at 22° C. for 3 days. The abaxial epidermis of the cotyledon was observed under a confocal microscope {manufactured by Zeiss, trade name: LSM510 META microscope}. The abaxial epidermis of the cotyledons was observed by carrying out the same operation was carried out as described above with the use of a spch mutant line to which stomagen was not administered as a control. A confocal microscopic image of abaxial epidermis of the cotyledon of the spch mutant to which purified recombinant stomagen was not administered in Test Example 9 is shown in FIG. 28 (a), a confocal microscopic image of abaxial epidermis of the cotyledon of the spch mutant to which purified recombinant stomagen (2 μM) was administered in Test Example 9 is shown in FIG. 28 (b), and a confocal microscopic image of abaxial epidermis of the cotyledon of the wild-type strain to which purified recombinant stomagen (2 μM) was administered in Test Example 9 is shown in FIG. 28 (c).
# [3] = test system: rice {strain “Nipponbare”}; test: Administration of synthetic stomagen to rice seeds (Test Example 14); type: in vivo; conditions: 200 μL of 80 μM stomagen added to 5 mL water at seeding; abaxial epidermis of second leaf at 32 days after seeding; vs not administered
# Experimental: The seeds of rice {strain “Nipponbare”} were seeded to a container {50-mL volume, manufactured by greiner} with 5 mL of desalted water, and thereafter 200 μL of 80 μM stomagen (the synthetic stomagen obtained in Example 5) was added thereto. Then, the seeds were maintained at 22° C. for 8 days. Thereafter, the resulting plant was grown at 22° C. in a B5 sterilized medium. The second leaves of rice at 32 days after seeding were collected. Then, the second leaves were fixed and made transparent, and then stomata were stained by carrying out the same operation as in Test Example 1. Thereafter, the abaxial epidermis of the second leaves was observed under a differential interference microscope {manufactured by Zeiss, trade name: Axioskop plus microscope}. The abaxial epidermis of the second leaves of the rice at 32 days after seeding was observed by carrying out the same procedure as in the above with the use of a rice to which stomagen was not administered as a control. A differential interference image of abaxial epidermis of the second leaf of the rice to which synthesized stomagen was administered in Test Example 14 is shown in FIG. 39 (a) and a differential interference image of abaxial epidermis of the second leaf of the rice to which synthesized stomagen was not administered in Test Example 14 is shown in FIG. 39 (b). In the figures, a framed part represents a stoma. […]
# [4] = test system: Arabidopsis thaliana {Lti6b-GFP line}; test: Administration of synthetic stomagen to germinated seedlings (Example 6); type: in vivo
# Experimental: The seeds of Arabidopsis thaliana {Lti6b-GFP line} were maintained in a B5 sterilized medium for germination. To the Lti6b-GFP line at 2 days after germination was administered the synthetic stomagen obtained in Example 5, so as to have a concentration of 300 nM. Thereafter, the Lti6b-GFP line was grown for 3 days at 22° C. Next, the cotyledon was collected. The surface was observed under a confocal microscope {manufactured by Zeiss, trade name: LSM510 META microscope}, to determine the number of stomata in a square area of 0.22 mm^2. Then, stomatal density was calculated. Here, statistical analysis was conducted by using R statistical analysis software. In addition, stomatal density was calculated by carrying out the same operation as described above with the use of an Lti6b-GFP line to which stomagen was not administered as a control. The result of examining the relationship between the amount of synthesized stomagen and stomatal density in Example 6 is shown in FIG. 27.
# [5] = 2 μM at 2 days after germination, grown 3 days at 22° C., abaxial epidermis of cotyledon, vs not administered
substance,measurement,setting,value
"purified recombinant stomagen: stomagen expressed in tobacco-cultured BY-2 cells and purified from culture supernatant by reversed-phase HPLC (IGSTAPTCTYNECRGCRYKCRAEQVPVEGNDPINSAYHYRCVCHR; Stomagen; UniProt Q9SV72 58-102, looked up)",number of stomata,[1]; [5],increased
same,stomatal density,[1]; [5],increased
same,"stomatal density, concentration dependence",[1]; recombinant stomagen expressed in BY-2 cells,concentration-dependently increase
stomagen: polypeptide comprising the amino acid sequence shown in SEQ ID NO: 6; 45-amino-acid peptide having six cysteine residues (IGSTAPTCTYNECRGCRYKCRAEQVPVEGNDPINSAYHYRCVCHR; listed as Arabidopsis thaliana),stability to heat and drying (stomatal density after treatment),[2],stable to heat and drying
same,relationship between stomagen concentration and stomatal density,soybean (Kariyutaka),positive correlation
same,stomata,spch mutant,do not increase
"synthetic stomagen: chemically synthesized polypeptide (45 amino acids) comprising 58th to 102nd amino acid residues of SEQ ID NO: 1, refolded by dialysis (IGSTAPTCTYNECRGCRYKCRAEQVPVEGNDPINSAYHYRCVCHR; also: refolded by dialysis, disulfide pairing not given here; listed as Arabidopsis thaliana)",number of stomata,[3],increase
same,stomatal density,[3],increase
same,stomatal density,"[4]; 300 nM at 2 days after germination, grown 3 days at 22° C., abaxial epidermis of cotyledon, vs not administered",increases
same,"stomatal density, concentration dependence",[4]; chemically synthesized stomagen,concentration-dependently increase
